Measurements from US12157730B2, “Heteroaryl derivative, method for producing same, and pharmaceutical composition comprising same as effective component” (VORONOI INC., priority 2019, dated 2024).

Tests used:
Assay type in all cases: cell-based
[1] = molecular target: T1, Ba/F3 cell EGFR L858R/T790M (Homo sapiens, UniProt P00533, L858R/T790M); test: Ba/F3 cell proliferation suppression, EGFR L858R/T790M; conditions: 72 hours after treatment, CellTiter-Glo
T1 construct: expressed in transfected cells; host or cells: Ba/F3
Method: (§1) The following experiment was carried out to evaluate the suppression activity of the compounds according to the present invention against proliferation of Ba/F3 and lung cancer cells which express EGFR mutations.
(§2) Of the cancer cell lines expressing the EGFR gene, A549 was cultured after adding 10% FBS (HyClone) to DMEM (Invitrogen), and RPMI-1640 (Invitrogen) with 10% FBS was used for the other cancer cells. For the Ba/F3 cells, RPMI-1640 with 10% FBS and 5 ng/ml IL-3 (R&D Systems) was used. The transduced Ba/F3 cells were cultured by adding 1 ug/ml puromycin (Invitrogen) to the same medium.
(§3) 24 hours before treatment with the compounds, 3000 to 5000 cells were distributed into each well of a white clear bottom 96 well plate (Corning). The compounds were diluted in dimethylsulfoxide (dilution ratio 3:1; 12 concentrations total) and injected 0.5 ul each for a final concentration of 0.3 nM to 50 um. As for measurement of live cells, 72 hours after treatment with the compounds, a CellTiter-Glo luminescent cell-viability reagent (Promega) was used to store the cells at room temperature for 10 minutes, followed by measurement of luminescence using a reader (SynergyNeo, Biotek). Each test was repeated three times.
(§4) The result was calculated as a cell growth ratio (%) compared to a control. The program GraphPad Prism version 5.0 was used to draw the graphs and calculate the GI50 values.

[2] = molecular target: T2, Ba/F3 cell EGFR Exon20 ins NPH (Homo sapiens, UniProt P00533, INS773NPH); test: Ba/F3 cell proliferation suppression, EGFR Exon20 ins NPH; conditions: for GI50: 72 hours after treatment, CellTiter-Glo; for Ba/F3 (NPH) Activity: GI50 class, Ba/F3 cell line with NPH inserted at Exon20 of EGFR, 72 hours
T2 construct: expressed in transfected cells; host or cells: Ba/F3
Procedure, shortened: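 72 h compound exposure, 0.3 nM–50 um (12 points, 3:1 dilution in DMSO); viability by CellTiter-Glo luminescence. Ba/F3 medium: RPMI-1640, 10% FBS, 5 ng/ml IL-3, 1 ug/ml puromycin for transduced cells. GI50 vs control, n=3.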

Ba/F3 cell naive = test: Ba/F3 cell proliferation suppression, naive; conditions: Mus musculus, BaF3; 72 hours after treatment, CellTiter-Glo
Method: as §1, §2, §3, §4

Row | SMILES | GI50 [1] [µM] | GI50 [2] [µM] | Ba/F3 (NPH) Activity [2] | GI50 (Ba/F3 cell naive) [µM]
1 | C=CC(=O)Nc1cc(Nc2cc(N3OCC[C@@H]3c3cc(F)cc(F)c3)ncn2)c(OC)cc1N1CCC(N2CC[C@H](N(C)C)C2)CC1 [Example 250, N-(5-((6-((R)-3-(3,5-difluorophenyl)isoxazolidine-2-yl)pyrimidine-4-yl)amino)-2-(4-((S)-3-(dimethylamino)pyrolidine-1-yl)piperidine-1-yl)-4-methoxyphenyl) acrylamide] | < 0.05 | < 0.05 | A (GI50 < 50 nM) | ≥ 5
2 | C=CC(=O)Nc1cc(Nc2cc(N3OCC[C@@H]3c3cc(F)cc(F)c3)ncn2)c(OC)cc1N1CCC(N2CC3CC(C2)N3CC)CC1 [Example 252, N-(5-((6-((R)-3-(3,5-difluorophenyl)isoxazolidine-2-yl)pyrimidine-4-yl)amino)-2-(4-(6-ethyl-3,6-diazabicyclo[3.1.1]heptane-3-yl)piperidine-1-yl)-4-methoxyphenyl) acrylamide] | < 0.05 | < 0.05 | A (GI50 < 50 nM) | 0.5 to 5
3 | C=CC(=O)Nc1cc(Nc2cc(N3OCC[C@@H]3c3cc(F)cc(F)c3)ncn2)c(OC)cc1N1CCC(N2CCN(C(C)=O)CC2)CC1 [Example 251, N-(2-(4-(4-acetylpiperazine-1-yl)piperidine-1-yl)-5-((6-((R)-3-(3,5-difluorophenyl)isoxazolidine-2-yl)pyrimidine-4-yl)amino)-4-methoxyphenyl) acrylamide] | < 0.05 | < 0.05 | A (GI50 < 50 nM) | ≥ 5
4 | C=CC(=O)Nc1cc(Nc2cc(N3OCC[C@@H]3c3cccc(Cl)c3F)ncn2)c(OC)cc1N1CCC(N2CCN(C3CC3)C[C@@H]2C)CC1 [Example 150, N-(5-((6-((R)-3-(3-chloro-2-fluorophenyl)isoxazolidine-2-yl)pyrimidine-4-yl)amino)-2-(4-((S)-4-cyclopropyl-2-methylpiperazine-1-yl)piperidine-1-yl)-4-methoxyphenyl) acrylamide] | – | – | A (GI50 < 50 nM) | –
5 | C=CC(=O)Nc1cc(Nc2cc(N3OCC[C@@H]3c3cccc(Cl)c3Cl)ncn2)c(OC)cc1N1CCC(N2CCN(C3CCCC3)CC2)CC1 [Example 206, N-(2-(4-(4-cyclopentylpiperazine-1-yl)piperidine-1-yl)-5-((6-((R)-3-(2,3-dichlorophenyl)isoxazolidine-2-yl)pyrimidine-4-yl)amino)-4-methoxyphenyl) acrylamide] | – | – | B (50 nM ≤ GI50 < 500 nM) | –
6 | C=CC(=O)Nc1cc(Nc2cc(N3OCC[C@@H]3c3cc(F)cc(F)c3)ncn2)c(OC)cc1N1CCC(N2C[C@@H]3CCN(C)[C@@H]3C2)CC1 [compound 446, N-(5-((6-((R)-3-(3,5-difluorophenyl)isoxazolidine-2-yl)pyrimidine-4-yl)amino)-4-methoxy-2-(4-((3aS,6aS)-1-methylhexahydropyrrolo [3,4-b]pyrrole-5(1H)-yl)piperidine-1-yl)phenyl)acrylamide] | – | – | A (GI50 < 50 nM) | –
7 | C=CC(=O)Nc1cc(Nc2cc(N3OCC[C@@H]3c3cccc(Cl)c3)ncn2)c(OC)cc1N1CCC(N2CCN(CC)CC2)CC1 [compound 412, N-(5-((6-((R)-3-(3-chlorophenyl)isoxazolidine-2-yl)pyrimidine-4-yl)amino)-2-(4-(4-ethylpiperazine-1-yl)piperidine-1-yl)-4-methoxyphenyl) acrylamide] | – | – | A (GI50 < 50 nM) | –
8 | C=CC(=O)Nc1cc(Nc2cc(N3OCC[C@@H]3c3cccc(OC)c3)ncn2)c(OC)cc1N1CCN(C)CC1 [Example 25, N-(4-methoxy-5-((6-((R)-3-(3-methoxyphenyl)isoxazolidine-2-yl)pyrimidine-4-yl)amino)-2-(4-methylpiperazine-1-yl)phenyl) acrylamide] | – | – | B (50 nM ≤ GI50 < 500 nM) | –
9 | C=CC(=O)Nc1cc(Nc2cc(N3OCC[C@H]3c3c(F)cccc3F)ncn2)c(OC)cc1N1CCN(C)CC1 [compound 307, N-(5-((6-((S)-3-(2,6-difluorophenyl)isoxazolidine-2-yl)pyrimidine-4-yl)amino)-4-methoxy-2-(4-methylpiperazine-1-yl)phenyl)acrylamide] | – | – | C (500 nM ≤ GI50 < 5000 nM) | –
10 | C=CC(=O)Nc1cc(Nc2cc(N3OCC[C@@H]3c3cccc4ccccc34)ncn2)c(OC)cc1N1CCC(N2CCN(C3COC3)CC2)CC1 [Example 198, N-(4-methoxy-5-((6-((R)-3-(naphthalene-1-yl)isoxazolidine-2-yl)pyrimidine-4-yl)amino)-2-(4-(4-(oxetane-3-yl)piperazine-1-yl)piperidine-1-yl)phenyl)acrylamide] | – | – | A (GI50 < 50 nM) | –
11 | C=CC(=O)Nc1cc(Nc2cc(N3OCC[C@@H]3c3cccc(Cl)c3)ncn2)c(OC)cc1N1CCN(C2COC2)CC1 [compound 470, N-(5-((6-((R)-3-(3-chlorophenyl)isoxazolidine-2-yl)pyrimidine-4-yl)amino)-4-methoxy-2-(4-(oxetane-3-yl)piperazine-1-yl)phenyl) acrylamide] | – | – | A (GI50 < 50 nM) | –
12 | C#Cc1cccc([C@H]2CCON2c2cc(Nc3cc(NC(=O)C=C)c(N4CCN(C)CC4)cc3OC)ncn2)c1 [compound 617, N-(5-((6-((R)-3-(3-ethynylphenyl)isoxazolidine-2-yl)pyrimidine-4-yl)amino)-4-methoxy-2-(4-methylpiperazine-1-yl)phenyl)acrylamide] | – | – | A (GI50 < 50 nM) | –
13 | C=CC(=O)Nc1cc(Nc2cc(N3OCC[C@@H]3c3ccc(C)nc3)ncn2)c(OC)cc1N1CCN(C2CCCC2)CC1 [Example 225, N-(2-(4-cyclopentylpiperazine-1-yl)-4-methoxy-5-((6-((R)-3-(6-methylpyridine-3-yl)isoxazolidine-2-yl)pyrimidine-4-yl)amino)phenyl)acrylamide] | – | – | B (50 nM ≤ GI50 < 500 nM) | –

Other lines, results leading:

Row | GI50 [1] [µM] | GI50 [2] [µM] | Ba/F3 (NPH) Activity [2] | GI50 (Ba/F3 cell naive) [µM] | SMILES
14 | – | – | A (GI50 < 50 nM) | – | C=CC(=O)Nc1cc(Nc2cc(N3OCC[C@@H]3c3cccc(F)c3F)ncn2)c(OC)cc1N1C[C@@H]2CCN(C)[C@@H]2C1 [compound 876, N-(5-((6-((R)-3-(2,3-difluorophenyl)isoxazolidine-2-yl)pyrimidine-4-yl)amino)-4-methoxy-2-((3aS,6aS)-1-methylhexahydropyrrolo [3,4-b]pyrrole-5(1H)-yl)phenyl) acrylamide]
15 | – | – | B (50 nM ≤ GI50 < 500 nM) | – | C=CC(=O)Nc1cc(Nc2cc(N3OCC[C@@H]3c3ccc(F)c(Cl)c3F)ncn2)c(OC)cc1N1CCN(C)[C@@H](C)C1 [compound 665, N-(5-((6-((R)-3-(3-chloro-2,4-difluorophenyl)isoxazolidine-2-yl)pyrimidine-4-yl)amino)-2-((S)-3,4-dimethylpiperazine-1-yl)-4-methoxyphenyl) acrylamide]
16 | – | – | A (GI50 < 50 nM) | – | C=CC(=O)Nc1cc(Nc2cc(N3OCC[C@@H]3c3ccc(F)c(Cl)c3)ncn2)c(OC)cc1N(C)CCN(C)C [compound 701, N-(5-((6-((R)-3-(3-chloro-4-fluorophenyl)isoxazolidine-2-yl)pyrimidine-4-yl)amino)-2-((2-(dimethylamino)ethyl)(methyl)amino)-4-methoxyphenyl) acrylamide]
17 | – | – | A (GI50 < 50 nM) | – | C=CC(=O)Nc1cc(Nc2cc(N3OCC[C@@H]3c3ccc(F)c(Cl)c3)ncn2)c(OC)cc1N1CCN(C2CC2)CC1 [compound 725, N-(5-((6-((R)-3-(3-chloro-4-fluorophenyl)isoxazolidine-2-yl)pyrimidine-4-yl)amino)-2-(4-cyclopropylpiperazine-1-yl)-4-methoxyphenyl) acrylamide]
18 | – | – | A (GI50 < 50 nM) | – | C=CC(=O)Nc1cc(Nc2cc(N3OCC[C@@H]3c3ccc(Cl)c(F)c3)ncn2)c(OC)cc1N1CCN(C2COC2)CC1 [compound 801, N-(5-((6-((R)-3-(4-chloro-3-fluorophenyl)isoxazolidine-2-yl)pyrimidine-4-yl)amino)-4-methoxy-2-(4-(oxetane-3-yl)piperazine-1-yl)phenyl)acrylamide]
19 | – | – | A (GI50 < 50 nM) | – | C=CC(=O)Nc1cc(Nc2cc(N3OCC[C@@H]3c3ccc(Cl)c(F)c3)ncn2)c(OC)cc1N1CCOCC1 [compound 854, N-(5-((6-((R)-3-(4-chloro-3-fluorophenyl)isoxazolidine-2-yl)pyrimidine-4-yl)amino)-4-methoxy-2-morpholinophenyl) acrylamide]
20 | – | – | B (50 nM ≤ GI50 < 500 nM) | – | C=CC(=O)Nc1cc(Nc2cc(N3OCC[C@@H]3Cc3ccccc3)ncn2)c(OC)cc1N(C)CCOC [compound 953, N-(5-((6-((S)-3-benzylisoxazolidine-2-yl)pyrimidine-4-yl)amino)-4-methoxy-2-((2-methoxyethyl) (methyl)amino)phenyl) acrylamide]
21 | – | – | A (GI50 < 50 nM) | – | C=CC(=O)Nc1cc(Nc2cc(N3OCC[C@@H]3c3ccc(Cl)c(Cl)c3)ncn2)c(OC)cc1N1CCC(N2C[C@H]3C[C@@H]2CO3)CC1 [compound 690]
